Data taken from patent publication US20130338130A1 (priority 2009, published 2013).
Several values for one entry are separate records, joined by “and”; a condition that tells them apart may be missing. Equal values may be shown once. Read-outs that look alike come from different tables or passages of the source.

Tested on: ATCC strain 43300 Staphylococcus aureus
Conditions: for survival (cfu/ml): 12 μg/ml oxacillin (re-added every 24 hours) + MSM (% in label), three columns = triplicate platings, inoculum 3.3×10^5/ml
Experimental: Additional antibiotic was added every 24 hours. The growth periods tested were 24 (see FIG. 4), 48, 72, 96 and 120 hours.
USP<51> Antimicrobial Effectiveness protocol was used as the template experimental paradigm. […] All concentrations were plated out to the 10^−7 dilutions to ascertain cfu/ml. […] Additional antibiotic was added at the initial concentration every 24 hours.
ATCC strain 43300 Staphylococcus aureus was streaked out for isolations. An isolated colony was chosen, streaked again and incubated. Isolate was chosen and then diluted to a McFarland standard of one. The estimated value was then taken to inoculate tubes containing growth media and 12, 30 or 60 μg/ml oxacillin with approximately 10^5 cfu/ml. These tubes were incubated and plated for counting cfu. A clone having no observed log reduction in cfu was selected for the rest of the experiment.
Material was calculated on a 10 ml volume. Sterile oxacillin was added to each experimental condition to a final concentration of 12, 30 or 60 μg/ml antibiotic.
All tubes were then inoculated with a dilution of the selected ATCC strain 43300 Staphylococcus aureus clone giving a final level of colony forming units of 3.3×10^5/ml (log=5.52). The tubes were incubated at 25° C. and mixed periodically. Antibiotic was re-inoculated every 24 hours at the initial concentration to maintain pressure on the organism. Plating was done at 24, 48, 72, and 120 hours. Each condition was plated by diluting 1 ml of growth material into 9 ml of MLB diluent broth. […] This mixture was serial diluted down to 10^−7 with 1 ml placed in triplicate in a sterile petri dish at each dilution point. 20 mls of TSA was added to each dilution, swirled and allowed to solidify. All dilutions were placed in a 35° C. incubator for 24 to 72 hours. Bacterial colonies on each plate were counted and the average taken then changed into log format. Any cfu/ml observed greater than 3.3×10^5 (log=5.5) were recorded as >3.3×10^5.
The tube was then taken out of the experiment and tested for ATCC strain 43300 Staphylococcus growth. The tube was spun down at 5000 rpm for 10 minutes. The supernatant was then decanted into 90 mls of Mueller-Hinton broth with 6 μg/ml oxacillin. This is for enrichment and the recovery of any MRSA cells that may be present whether healthy or stressed. The pellet had 10 mls Mueller-Hinton broth with 6 μg/ml oxacillin added to it to recover any cells that may be present. Both vessels were incubated at 35° C. for 48 hours followed by plating every 24 hours. Each vessel was plated at 10 dilutions to obtain a 1 cfu detection limit.

CS(C)(=O)=O [MSM, Methylsulfonylmethane]
survival (cfu/ml) (24 hours, listed as 15% MSM): 1.35 × 10^4 cfu/ml and 1.30 × 10^4 cfu/ml
survival (cfu/ml) (24 hours, listed as 16% MSM): 7.6 × 10^3 cfu/ml and 7.4 × 10^3 cfu/ml
survival, Average Log (12 μg/ml oxacillin + MSM (% in label), 24 hours, listed as 5% MSM): 3.91 Log
survival, Average Log (12 μg/ml oxacillin + MSM (% in label), 24 hours, listed as 6% MSM): 3.92 Log
survival, Average Log (12 μg/ml oxacillin + MSM (% in label), 24 hours, listed as 7% MSM): 3.91 Log
survival, Average Log (12 μg/ml oxacillin + MSM (% in label), 24 hours, listed as 8% MSM): 3.82 Log
survival, Average Log (12 μg/ml oxacillin + MSM (% in label), 24 hours, listed as 9% MSM): 3.72 Log
survival, Average Log (12 μg/ml oxacillin + MSM (% in label), 24 hours, listed as 10% MSM): 3.76 Log
survival, Average Log (12 μg/ml oxacillin + MSM (% in label), 24 hours, listed as 11% MSM): 3.91 Log
survival, Average Log (12 μg/ml oxacillin + MSM (% in label), 24 hours, listed as 12% MSM): 3.85 Log
survival, Average Log (12 μg/ml oxacillin + MSM (% in label), 24 hours, listed as 13% MSM): 3.95 Log
survival, Average Log (12 μg/ml oxacillin + MSM (% in label), 24 hours, listed as 14% MSM): 4.00 Log
survival, Average Log (12 μg/ml oxacillin + MSM (% in label), 24 hours, listed as 15% MSM): 4.11 Log
survival, Average Log (12 μg/ml oxacillin + MSM (% in label), 24 hours, listed as 16% MSM): 3.88 Log
survival, Average Log (12 μg/ml oxacillin + MSM (% in label), 48 hours, listed as 5% MSM): 3.6 Log
survival, Average Log (12 μg/ml oxacillin + MSM (% in label), 48 hours, listed as 6% MSM): 3.2 Log
survival, Average Log (12 μg/ml oxacillin + MSM (% in label), 48 hours, listed as 7% MSM): 3.9 Log
survival, Average Log (12 μg/ml oxacillin + MSM (% in label), 48 hours, listed as 8% MSM): 3.7 Log
survival, Average Log (12 μg/ml oxacillin + MSM (% in label), 48 hours, listed as 9% MSM): 3.4 Log
survival, Average Log (12 μg/ml oxacillin + MSM (% in label), 48 hours, listed as 10% MSM): 2.7 Log
survival, Average Log (12 μg/ml oxacillin + MSM (% in label), 48 hours, listed as 11% MSM): 2.8 Log
survival, Average Log (12 μg/ml oxacillin + MSM (% in label), 48 hours, listed as 12% MSM): 2.8 Log
survival, Average Log (12 μg/ml oxacillin + MSM (% in label), 48 hours, listed as 13% MSM): 2.8 Log
survival, Average Log (12 μg/ml oxacillin + MSM (% in label), 48 hours, listed as 14% MSM): 1.0 Log
survival, Average Log (12 μg/ml oxacillin + MSM (% in label), 48 hours, listed as 15% MSM): 3.7 Log
survival, Average Log (12 μg/ml oxacillin + MSM (% in label), 48 hours, listed as 16% MSM): 3.7 Log
survival, Average Log (12 μg/ml oxacillin + MSM (% in label), 72 hours, listed as 5% MSM): 5.5 Log
survival, Average Log (12 μg/ml oxacillin + MSM (% in label), 72 hours, listed as 6% MSM): 5.5 Log
survival, Average Log (12 μg/ml oxacillin + MSM (% in label), 72 hours, listed as 7% MSM): 5.5 Log
survival, Average Log (12 μg/ml oxacillin + MSM (% in label), 72 hours, listed as 8% MSM): 5.5 Log
survival, Average Log (12 μg/ml oxacillin + MSM (% in label), 72 hours, listed as 9% MSM): 4.5 Log
survival, Average Log (12 μg/ml oxacillin + MSM (% in label), 72 hours, listed as 10% MSM): 4.0 Log
survival, Average Log (12 μg/ml oxacillin + MSM (% in label), 72 hours, listed as 11% MSM): 3.6 Log
survival, Average Log (12 μg/ml oxacillin + MSM (% in label), 72 hours, listed as 12% MSM): 3.1 Log
survival, Average Log (12 μg/ml oxacillin + MSM (% in label), 72 hours, listed as 13% MSM): 2.7 Log
survival, Average Log (12 μg/ml oxacillin + MSM (% in label), 72 hours, listed as 14% MSM): 2.0 Log
survival, Average Log (12 μg/ml oxacillin + MSM (% in label), 72 hours, listed as 15% MSM): 2.3 Log
log reduction in the number of cfu/ml (12 μg/ml oxacillin, 48 hours): 4.5 log
log reduction in the number of cfu/ml (12 μg/ml oxacillin, 72 hours): 4.5 log
log reduction in the number of cfu/ml (12 μg/ml oxacillin, MSM concentrations of 12%-16%, 72 hours): 1 log
average log reduction in the number of cfu/ml (12 μg/ml oxacillin, all MSM concentrations, 24 hours): 1.5 logs
average Log reduction in the number of cfu/ml (30 μg/ml and 60 μg/ml oxacillin, lower end of MSM concentrations, 24 hours): 3 log
survival, Average Log (30 μg/ml oxacillin + MSM (% in label), 24 hours, listed as 5% MSM): 2.51 Log
survival, Average Log (30 μg/ml oxacillin + MSM (% in label), 24 hours, listed as 6% MSM): 2.46 Log
survival, Average Log (30 μg/ml oxacillin + MSM (% in label), 24 hours, listed as 7% MSM): 2.98 Log
survival, Average Log (30 μg/ml oxacillin + MSM (% in label), 24 hours, listed as 8% MSM): 3.07 Log
survival, Average Log (30 μg/ml oxacillin + MSM (% in label), 24 hours, listed as 9% MSM): 3.01 Log
survival, Average Log (30 μg/ml oxacillin + MSM (% in label), 24 hours, listed as 10% MSM): 3.32 Log
survival, Average Log (30 μg/ml oxacillin + MSM (% in label), 24 hours, listed as 11% MSM): 3.57 Log
survival, Average Log (30 μg/ml oxacillin + MSM (% in label), 24 hours, listed as 12% MSM): 3.59 Log
survival, Average Log (30 μg/ml oxacillin + MSM (% in label), 24 hours, listed as 13% MSM): 3.62 Log
survival, Average Log (30 μg/ml oxacillin + MSM (% in label), 24 hours, listed as 14% MSM): 3.78 Log
survival, Average Log (30 μg/ml oxacillin + MSM (% in label), 24 hours, listed as 15% MSM): 3.94 Log
survival, Average Log (30 μg/ml oxacillin + MSM (% in label), 24 hours, listed as 16% MSM): 3.91 Log
survival, Average Log (30 μg/ml oxacillin + MSM (% in label), 48 hours, listed as 5% MSM): 3.8 Log
survival, Average Log (30 μg/ml oxacillin + MSM (% in label), 48 hours, listed as 6% MSM): 3.7 Log
survival, Average Log (30 μg/ml oxacillin + MSM (% in label), 48 hours, listed as 7% MSM): 2.3 Log
